Experimental data taken from patent US6737383B1, “Herbicidal oxadiazolidines” (priority 1999, dated 2004).

Columns and labels:
bedstraw = experiment: Test B pre/postemergence bedstraw; assay type: in vivo, Galium aparine
Summary of the method: (§1)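 Test chemicals in a non-phytotoxic solvent mixture with surfactant were sprayed preemergence onto planted seeds and postemergence onto plants 2 to 18 cm tall (1- to 4-leaf stage). After twelve to sixteen days in a greenhouse, injury was visually rated against untreated controls from 0 (no effect) to 10 (complete control).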

blackgrass = experiment: Test B pre/postemergence blackgrass; assay type: in vivo, Alopecurus myosuroides
Summary of the method: as §1

surinam grass = experiment: Test B pre/postemergence surinam grass; assay type: in vivo, Brachiaria decumbens; settings: Postemergence
Summary of the method: as §1

cocklebur = experiment: Test B pre/postemergence cocklebur; assay type: in vivo, Xanthium strumarium
Summary of the method: as §1

corn = experiment: Test B pre/postemergence corn; assay type: in vivo, Zea mays
Summary of the method: as §1

crabgrass = experiment: Test B pre/postemergence crabgrass; assay type: in vivo, Digitaria sanguinalis
Summary of the method: as §1

giant foxtail = experiment: Test B pre/postemergence giant foxtail; assay type: in vivo, Setaria faberii
Summary of the method: as §1

morningglory = experiment: Test B pre/postemergence morningglory; assay type: in vivo, Ipomoea hederacea
Summary of the method: as §1

pigweed = experiment: Test B pre/postemergence pigweed; assay type: in vivo, Amaranthus retroflexus
Summary of the method: as §1

rape = experiment: Test B pre/postemergence rape; assay type: in vivo, Brassica napus
Summary of the method: as §1

soybean = experiment: Test B pre/postemergence soybean; assay type: in vivo, Glycine max
Summary of the method: as §1

sugar beet = experiment: Test B pre/postemergence sugar beet; assay type: in vivo, Beta vulgaris
Summary of the method: as §1

velvetleaf = experiment: Test B pre/postemergence velvetleaf; assay type: in vivo, Abutilon theophrasti
Summary of the method: as §1

wheat = experiment: Test B pre/postemergence wheat; assay type: in vivo, Triticum aestivum
Summary of the method: as §1

wild oat = experiment: Test B pre/postemergence wild oat; assay type: in vivo, Avena fatua
Summary of the method: as §1

purple nutsedge = experiment: Test B pre/postemergence purple nutsedge; assay type: in vivo, Cyperus rotundus
Summary of the method: as §1

[1] = Postemergence, Rate 62 g/ha, scale 0 to 10, 0 is no effect, 10 is complete control
[2] = Postemergence, Rate 125 g/ha, scale of 0 to 10 where 0 is no effect and 10 is complete control
[3] = Preemergence, Rate 125 g/ha, scale of 0 to 10 where 0 is no effect and 10 is complete control
[4] = Preemergence, Rate 250 g/ha, scale 0 (no effect) to 10 (complete control)
[5] = Rate 62 g/ha, Preemergence, scale 0 to 10
[6] = Rate 250 g/ha, Postemergence, scale 0 to 10, 0 is no effect, 10 is complete control
[7] = Rate 500 g/ha, Postemergence, scale 0 to 10, 0 is no effect, 10 is complete control
[8] = Rate 500 g/ha, Preemergence, scale 0 to 10 (0 no effect, 10 complete control)

Compound: CC(C)N(C(=O)n1oc(=O)n(C(C)C(=S)N(C)C)c1=O)c1ccc(F)cc1F (stereo not shown) [Compound 739]
- Plant response rating, Bedstraw (bedstraw; [1]): 3
- Bedstraw plant response rating (bedstraw; [2]): 3
- Plant response rating, Bedstraw (bedstraw; [3]): 10
- Bedstraw plant response rating (bedstraw; [4]): 10
- Bedstraw plant response rating (bedstraw; [5]): 0
- Bedstraw plant response rating (bedstraw; [6]): 4
- Bedstraw plant response rating (bedstraw; [7]): 6
- Bedstraw plant response rating (bedstraw; [8]): 10
- Plant response rating, Blackgrass (blackgrass; [1]): 0
- Blackgrass plant response rating (blackgrass; [2]): 3
- Plant response rating, Blackgrass (blackgrass; [3]): 3
- Blackgrass plant response rating (blackgrass; [4]): 3
- Blackgrass plant response rating (blackgrass; [5]): 2
- Blackgrass plant response rating (blackgrass; [6]): 3
- Blackgrass plant response rating (blackgrass; [7]): 6
- Blackgrass plant response rating (blackgrass; [8]): 10
- Plant response rating, B. signalgrass (surinam grass; Rate 62 g/ha, scale 0 to 10, 0 is no effect, 10 is complete control): 0
- B. signalgrass plant response rating (surinam grass; Rate 125 g/ha, scale of 0 to 10 where 0 is no effect and 10 is complete control): 2
- B. signalgrass plant response rating (surinam grass; Rate 250 g/ha, scale 0 to 10, 0 is no effect, 10 is complete control): 2
- B. signalgrass plant response rating (surinam grass; Rate 500 g/ha, scale 0 to 10, 0 is no effect, 10 is complete control): 7
- Plant response rating, Cocklebur (cocklebur; [1]): 2
- Cocklebur plant response rating (cocklebur; [2]): 2
- Plant response rating, Cocklebur (cocklebur; [3]): 0
- Cocklebur plant response rating (cocklebur; [4]): 0
- Cocklebur plant response rating (cocklebur; [5]): 0
- Cocklebur plant response rating (cocklebur; [6]): 2
- Cocklebur plant response rating (cocklebur; [7]): 3
- Cocklebur plant response rating (cocklebur; [8]): 0
- Plant response rating, Corn (corn; [1]): 0
- Corn plant response rating (corn; [2]): 0
- Plant response rating, Corn (corn; [3]): 0
- Corn plant response rating (corn; [4]): 2
- Corn plant response rating (corn; [5]): 0
- Corn plant response rating (corn; [6]): 0
- Corn plant response rating (corn; [7]): 0
- Corn plant response rating (corn; [8]): 2
- Plant response rating, Crabgrass (crabgrass; [1]): 4
- Crabgrass plant response rating (crabgrass; [2]): 9
- Plant response rating, Crabgrass (crabgrass; [3]): 2
- Crabgrass plant response rating (crabgrass; [4]): 9
- Crabgrass plant response rating (crabgrass; [5]): 2
- Crabgrass plant response rating (crabgrass; [7]): 9
- Crabgrass plant response rating (crabgrass; [8]): 10
- Plant response rating, Giant foxtail (giant foxtail; [1]): 7
- Giant foxtail plant response rating (giant foxtail; [2]): 9
- Plant response rating, Giant foxtail (giant foxtail; [3]): 9
- Giant foxtail plant response rating (giant foxtail; [4]): 9
- Giant foxtail plant response rating (giant foxtail; [5]): 9
- Giant foxtail plant response rating (giant foxtail; [6]): 9
- Giant foxtail plant response rating (giant foxtail; [7]): 9
- Giant foxtail plant response rating (giant foxtail; [8]): 10
- Plant response rating, Morningglory (morningglory; [1]): 6
- Plant response rating, Morningglory (morningglory; [3]): 0
- Morningglory plant response rating (morningglory; [4]): 0
- Morningglory plant response rating (morningglory; [5]): 0
- Morningglory plant response rating (morningglory; [6]): 6
- Morningglory plant response rating (morningglory; [7]): 8
- Morningglory plant response rating (morningglory; [8]): 0
- Plant response rating, Redroot pigweed (pigweed; [1]): 0
- Redroot pigweed plant response rating (pigweed; [2]): 3
- Plant response rating, Redroot pigweed (pigweed; [3]): 2
- Redroot pigweed plant response rating (pigweed; [4]): 9
- Redroot pigweed plant response rating (pigweed; [5]): 2
- Redroot pigweed plant response rating (pigweed; [6]): 3
- Redroot pigweed plant response rating (pigweed; [7]): 5
- Redroot pigweed plant response rating (pigweed; [8]): 10
- Plant response rating, Rape (rape; [1]): 0
- Rape plant response rating (rape; [2]): 0
- Plant response rating, Rape (rape; [3]): 0
- Rape plant response rating (rape; [4]): 0
- Rape plant response rating (rape; [5]): 0
- Rape plant response rating (rape; [6]): 0
- Rape plant response rating (rape; [7]): 2
- Rape plant response rating (rape; [8]): 2
- Plant response rating, Soybean (soybean; [1]): 3
- Soybean plant response rating (soybean; [2]): 3
- Plant response rating, Soybean (soybean; [3]): 0
- Soybean plant response rating (soybean; [4]): 0
- Soybean plant response rating (soybean; [5]): 0
- Soybean plant response rating (soybean; [6]): 4
- Soybean plant response rating (soybean; [7]): 5
- Soybean plant response rating (soybean; [8]): 0
- Plant response rating, Sugarbeets (sugar beet; [1]): 3
- Sugarbeets plant response rating (sugar beet; [2]): 3
- Plant response rating, Sugarbeets (sugar beet; [3]): 2
- Sugarbeets plant response rating (sugar beet; [4]): 2
- Sugarbeets plant response rating (sugar beet; [5]): 2
- Sugarbeets plant response rating (sugar beet; [6]): 3
- Sugarbeets plant response rating (sugar beet; [7]): 4
- Sugarbeets plant response rating (sugar beet; [8]): 4
- Plant response rating, Velvetleaf (velvetleaf; [1]): 0
- Velvetleaf plant response rating (velvetleaf; [2]): 0
- Plant response rating, Velvetleaf (velvetleaf; [3]): 0
- Velvetleaf plant response rating (velvetleaf; [4]): 2
- Velvetleaf plant response rating (velvetleaf; [5]): 0
- Velvetleaf plant response rating (velvetleaf; [6]): 0
- Velvetleaf plant response rating (velvetleaf; [7]): 3
- Velvetleaf plant response rating (velvetleaf; [8]): 3
- Plant response rating, Wheat (wheat; [1]): 0
- Wheat plant response rating (wheat; [2]): 0
- Plant response rating, Wheat (wheat; [3]): 0
- Wheat plant response rating (wheat; [4]): 0
- Wheat plant response rating (wheat; [5]): 0
- Wheat plant response rating (wheat; [6]): 2
- Wheat plant response rating (wheat; [7]): 6
- Wheat plant response rating (wheat; [8]): 3
- Plant response rating, Wild oats (wild oat; [1]): 0
- Wild oats plant response rating (wild oat; [2]): 0
- Plant response rating, Wild oats (wild oat; [3]): 0
- Wild oats plant response rating (wild oat; [4]): 0
- Wild oats plant response rating (wild oat; [5]): 0
- Wild oats plant response rating (wild oat; [6]): 0
- Wild oats plant response rating (wild oat; [7]): 0
- Wild oats plant response rating (wild oat; [8]): 4
- Plant response rating, Nutsedge (purple nutsedge; [1]): 0
- Plant response rating, Nutsedge (purple nutsedge; [3]): 0
- Nutsedge plant response rating (purple nutsedge; [4]): 0
- Nutsedge plant response rating (purple nutsedge; [5]): 0
- Nutsedge plant response rating (purple nutsedge; [6]): 0
- Nutsedge plant response rating (purple nutsedge; [7]): 3
- Nutsedge plant response rating (purple nutsedge; [8]): 0
